By EC50 is commonly meant the concentration at which the effect is half-maximal. A lower EC50 goes with higher potency in that assay.

The assay has as its target T1, human PPARgamma (Homo sapiens, UniProt P37231).
T1 construct: amino acids I152-Y475; expressed in transfected cells; host or cells: HEK cells (transient transfection of pcDNA3-GAL4-humanPPARgammaLBD)
T1 sequence (P37231 182-477 isoform P37231-2 limits assumed): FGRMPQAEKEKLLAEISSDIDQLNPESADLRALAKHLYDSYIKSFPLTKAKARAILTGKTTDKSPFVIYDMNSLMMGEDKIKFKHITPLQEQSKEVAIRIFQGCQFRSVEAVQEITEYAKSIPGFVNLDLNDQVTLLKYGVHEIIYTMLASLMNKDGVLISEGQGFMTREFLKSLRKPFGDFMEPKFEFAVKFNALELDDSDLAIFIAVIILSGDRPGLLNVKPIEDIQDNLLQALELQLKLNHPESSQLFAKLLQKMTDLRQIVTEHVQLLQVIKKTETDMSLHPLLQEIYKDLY
The assay is described as follows: Cellular PPARgamma assay (luciferase reporter, transiently transfected HEK cells). The assay is classed as cell-based. Particulars: GAL4-humanPPARgammaLBD. The source says: A transient transfection system is employed to determine the cellular PPARgamma activity of PPAR agonists. It is based on the use of a luciferase reporter plasmid (pGL3basic-5×GAL4-TK) and of a PPARgamma expression plasmid (pcDNA3-GAL4-humanPPARgammaLBD). Both plasmids are transiently transfected into human embryonic kidney cells (HEK cells). There is then expression in these cells of the fusion protein GAL4-humanPPARgammaLBD which binds to the GAL4 binding sites of the reporter plasmid. In the presence of a PPARgamma-active ligand, the activated fusion protein GAL4-humanPPARgammaLBD induces expression of the luciferase reporter gene, which can be detected in the form of a chemiluminescence signal after addition of a luciferase substrate. As a difference from the stably transfected PPARalpha reporter cell line, in the cellular PPARgamma assay the two components (luciferase reporter plasmid and PPARgamma expression plasmid) are transiently transfected into HEK cells because stable and permanent expression of the PPARgamma fusion protein is cytotoxic.
The luciferase reporter plasmid pGL3basic-5×GAL4-TK is based on the vector pGL3basic from Promega. The reporter plasmid is prepared by cloning five binding sites of the yeast transcription factor GAL4 (each binding site with the sequence 5′-CTCGGAGGACAGTACTCCG-3′), together with a 160 bp-long thymidine kinase promoter section (Genbank Accession #AF027128) 5′-upstream into pGL3basic. 3′-downstream of the thymidine kinase promoter is the complete luciferase gene from Photinus pyralis (Genbank Accession #M15077) which is already a constituent of the plasmid pGL3basic used. The cloning and sequencing of the reporter plasmid pGL3basic-5×GAL4-TK took place in analogy to the description in Sambrook J. et. al. (Molecular cloning, Cold Spring Harbor Laboratory Press, 1989).
The PPARgamma expression plasmid pcDNA3-GAL4-humanPPARgammaLBD was prepared by first cloning the cDNA coding for amino acids 1-147 of the yeast transcription factor GAL4 (Genbank Accession #P04386) into the plasmid pcDNA3 (from Invitrogen) 3′-downstream of the cytomegalovirus promoter. Subsequently, the cDNA of the ligand-binding domain (LBD) of the human PPARgamma receptor (amino acids I152-Y475; Accession #g1480099) 3′-downstream of the GAL4 DNA binding domain. Cloning and sequencing of the PPARgamma expression plasmid pcDNA3-GAL4-humanPPARgammaLBD again took place in analogy to the description in Sambrook J. et. al. (Molecular cloning, Cold Spring Harbor Laboratory Press, 1989). Besides the luciferase reporter plasmid pGL3basic-5×GAL4-TK and the PPARgamma expression plasmid pcDNA3-GAL4-humanPPARgammaLBD, also used for the cellular PPARgamma assay are the reference plasmid pRL-CMV (from Promega) and the plasmid pBluescript SK(+) from Stratagene. All four plasmids were prepared using a plasmid preparation kit from Qiagen, which ensured a plasmid quality with a minimal endotoxin content, before transfection into HEK cells.
The activity of PPARgamma agonists is determined in a 4-day assay which is described below. Before the transfection, HEK cells are cultivated in DMEM (#41965-039, Invitrogen) which is mixed with the following additions: 10% FCS (#16000-044, Invitrogen), 1% penicillin-streptomycin solution (#15140-122, Invitrogen) and 2 mM L-glutamine (#25030-024, Invitrogen).
Firstly, solution A, a transfection mixture which contains all four plasmids previously described in addition to DMEM, is prepared. The following amounts are used to make up 3 ml of solution A for each 96 well microtiter plate for an assay: 2622 μl of antibiotic- and serum-free DMEM (#41965-039, Invitrogen), 100 μl of reference plasmid pRL-CMV (1 ng/μl), 100 μl of luciferase reporter plasmid pGL3basic-5×GAL4-TK (10 ng/μl), 100 μl of PPARgamma expression plasmid pcDNA3-GAL4-humanPPARgammaLBD (100 ng/μl) and 78 μl of plasmid pBluescript SK(+) (500 ng/μl). […]
In general terms: In a reporter assay the amount or activity of a reporter protein is the signal.
`CC(C)(C)c1nnc(NS(=O)(=O)c2ccc(CCNC(=O)c3cc(Cl)ccc3Cl)cc2)s1` [Example 35, N-{2-[4-(5-tert-Butyl-[1,3,4]thiadiazol-2-ylsulfamoyl)-phenyl]-ethyl}-2,5-dichloro-benzamide] came in with an EC50 of 270 nM.

`CCOc1cc(C(F)(F)F)ccc1C(=O)NCC(C)c1ccc(S(=O)(=O)Nc2nnc(C(C)C)s2)cc1` (racemic) [Example 43, 2-Ethoxy-N-{2-[4-(5-isopropyl-[1,3,4]thiadiazol-2-ylsulfamoyl)-phenyl]-propyl}-4-trifluoromethyl-benzamide] showed an EC50 of 90 nM.

Compound `COc1ccc(C(C)(C)C)cc1C(=O)NCCc1ccc(S(=O)(=O)Nc2nnc(C(C)C)s2)cc1` [Example 2, 5-tert-Butyl-N-{2-[4-(5-isopropyl-[1,3,4]thiadiazol-2-ylsulfamoyl)-phenyl]-ethyl}-2-methoxy-benzamide] returned an EC50 of 180 nM.

`COc1ccc(C(=O)NCCc2ccc(S(=O)(=O)Nc3nnc(C(C)C)s3)cc2)c(OC)n1` [Example 5, N-{2-[4-(5-Isopropyl-[1,3,4]thiadiazol-2-ylsulfamoyl)-phenyl]-ethyl}-2,6-dimethoxy-nicotinamide] came in with a 50% effective concentration (EC50) of 1110 nM.

On to `COc1cc(C(F)(F)F)ccc1C(=O)NCCc1ccc(S(=O)(=O)Nc2nnc(C(C)C)s2)cc1` [Example 1, N-{2-[4-(5-Isopropyl-[1,3,4]thiadiazol-2-ylsulfamoyl)-phenyl]-ethyl}-2-methoxy-4-trifluoromethyl-benzamide], for which the EC50 came out at 380 nM.

Consider `Cc1ccc(Cl)cc1C(=O)NCCc1ccc(S(=O)(=O)Nc2nnc(-c3ccccc3)s2)cc1` [Example 32, 5-Chloro-2-methyl-N-{2-[4-(5-phenyl-[1,3,4]thiadiazol-2-ylsulfamoyl)-phenyl]-ethyl}-benzamide], for which the response was half-maximal at 4870 nM (EC50). This EC50 lies about 13-fold higher than the previous one.

Turning to `CCOc1cc(C(F)(F)F)ccc1C(=O)NCC(C)c1ccc(S(=O)(=O)Nc2nnc(C(C)C)s2)cc1` (single isomer, unassigned) [Example 43a], the EC50 came out at 70 nM.

As to `CCOc1cc(C(F)(F)F)ccc1C(=O)NCC(CC)c1ccc(S(=O)(=O)Nc2nnc(C(C)C)s2)cc1` (single isomer, unassigned) [Example 44b], the EC50 came out at 10 nM.

`CCOc1cc(C(F)(F)F)ccc1C(=O)NCC(C)c1ccc(S(=O)(=O)Nc2nnc(C(C)C)s2)cc1` (single isomer, unassigned) [Example 43b] yielded an EC50 of 70 nM.

In the case of `Cc1cc(Br)c(C(=O)NCCc2ccc(S(=O)(=O)Nc3nnc(C(C)C)s3)cc2)s1` [Example 47, 3-Bromo-5-methyl-thiophene-2-carboxylic acid {2-[4-(5-isopropyl-[1,3,4]thiadiazol-2-ylsulfamoyl)-phenyl]-ethyl}-amide], the EC50 was 1870 nM.

`CC(C)c1nnc(NS(=O)(=O)c2ccc(CNC(=O)c3ccc(C(F)(F)F)cc3)cc2)s1` [Example 24, N-[4-(5-Isopropyl-[1,3,4]thiadiazol-2-ylsulfamoyl)-benzyl]-4-trifluoromethyl-benzamide] showed an EC50 of 1530 nM.

`CCOc1cc(C(F)(F)F)ccc1C(=O)NCC(CC)c1ccc(S(=O)(=O)Nc2nnc(C(C)C)s2)cc1` (single isomer, unassigned) [Example 44a] yielded a half-maximal effective concentration (EC50) of 30 nM.

For the origin of these results see patent publication US7858647B2, “N-[1,3,4]-thiadiazol-2-yl-benzene sulfonamides, pharmaceutical compositions thereof and methods for their therapeutic use” (Sanofi-Aventis, priority 2005, dated 2010).
